Data from patent publication US20130263297A1, “METHODS OF TREATING CANCER” (Cedars-Sinai Medical Center, priority 2010, published 2013).
Entries after “also recorded” stand apart in the source; their conditions may differ.

Key:
cMet in ARCaPE cells = experiment: cMet expression and phosphorylation (Western blot), ARCaPE; assay type: cell-based, human
[1] = tested on: cMyc site within the RANKL promoter in LNCaP cells; experiment: ChIP analysis (quantitative real-time PCR) of cMyc binding to the RANKL promoter; assay type: cell-based, human
[2] = tested on: cMet transcriptional activity; experiment: cMet promoter reporter assay; assay type: cell-based
[3] = tested on: LNCaP and LNCaP-RANKL cells; experiment: In vitro migration and invasion assays (transwell), LNCaP model; assay type: cell-based, human
Procedure: (§1) Migration and invasion of cancer cells were examined in 24-well plates using either uncoated or collagen I- and growth factor reduced Matrigel (BD Biosciences, Bedford, Mass.)-coated transwells (8 μm pore size), respectively, as previously described. Cells were serum-starved in RPMI 1640 or T-medium (Invitrogen, Carlsbad, Calif.) overnight and dissociated in 10 mM EDTA/HEPES. The lifted cells were washed and counted, and 5×10^4 cells were seeded in 100 μl of serum-free RPMI 1640 or T-medium in the upper chamber of the transwells in the presence or absence of 1 μg/ml OPG and 400 μl of RPMI 1640 or T-medium supplemented with 5% FBS was placed in the lower chamber of the transwells. After 24 h (migration) and 48 h (invasion) of culturing at 37° C., the migrated and invaded cells were fixed with 10% formaldehyde, stained with 0.5% crystal violet, and the cells at the upper side of the membrane of the chamber were removed and quantified.

cMet in LNCaP cells = experiment: cMet expression and phosphorylation (Western blot), LNCaP; assay type: cell-based, human
[4] = tested on: RANKL promoter in LNCaP and LNCaP-RANKL cells; experiment: RANKL promoter reporter assay, LNCaP model; assay type: cell-based, human
[5] = tested on: ARCaPE, ARCaPM and ARCaPE-RANKL cells; experiment: In vitro migration and invasion assays (transwell), ARCaP model; assay type: cell-based, human
Procedure: as §1

LNCaP cells = experiment: EMT marker / RANKL expression and signaling by RT-PCR and Western blot, LNCaP model; assay type: cell-based, human
Procedure: Total RNA from cells was isolated using RNeasy Mini Kit (Qiagen, Valencia, Calif.) according to manufacturer's instructions. Complementary DNA (cDNA) was generated from 3 μg of total RNA using SuperScript® III First-Strand Synthesis System (Invitrogen, Carlsbad Calif.), and 1 μl of cDNA was subjected to PCR analyses using the following primers: RANKL F: 5′-TGGATCACAGCACATCAGAGCAG-3′ (SEQ ID NO:3); RANKL R: 5′-TGGGGCTCAATCTATATCTCGAAC-3′ (SEQ ID NO:4); RANK F: 5′-GGGAAAGCACTCACAGCTAATTTG-3′ (SEQ ID NO:5); RANK R: 5′-GCACTGGCTTAAACTGTCATTCTCC-3′ (SEQ ID NO:6); OPG F: 5′-GCT AAC CTC ACC TTC GAG-3′ (SEQ ID NO:7); OPG R: 5′-TGA TTG GAC CTG GTT ACC-3′ (SEQ ID NO:8); E-cadherin F: 5′-GCCAAGCAGCAGTACATTCTACACG-3′ (SEQ ID NO:9); E-cadherin R: 5′-GCTGTTCTTCACGTGCTCAAAATCC-3′ (SEQ ID NO:10); N-cadherin F: 5′-GATGTTGAGGTACAGAATCGT-3′ (SEQ ID NO:11); N-cadherin R: 5′-GGT CGG TCT GGA TGG CGA-3′ (SEQ ID NO:12); Snail F: 5′-CAGACCCACTCAGATGTCAA-3′ (SEQ ID NO:13); Snail R: 5′-CATAGTTAGTCACACCTCGT-3′ (SEQ ID NO:14); Vimentin F: 5′-GGA CTC GGT GGA CTT CTC-3′ (SEQ ID NO:15); Vimentin R: 5′-CGC ATC TCC TCC TCG TAG-3′ (SEQ ID NO:16). The PCR reaction cycles involved an initial denaturation at 94° C. for 10 min, followed by 36 cycles of 94° C., 1 min; 55° C., 30 sec for RANKL and RANK and 48° C., 1 min for OPG; 72° C., 1 min and a final extension at 72° C. for 10 min. For E-cadherin and N-cadherin gene amplification, the PCR reactions ran for a total of 32 cycles and the annealing temperature was 55° C. and 47° C., respectively for 30 sec. For Snail, Vimentin, and GAPDH amplification, the PCR reactions ran for a total of 28 cycles with annealing temperatures at 48° C. for 30 sec. The amplified PCR products were detected and analyzed on 1% agarose gel.
ARCaPE and LNCaP cells were cultured in 6-well plate and at 70% confluency, the cells were serum-starved overnight and then treated with 200 ng/ml of trimerized RANKL in serum-free and phenol-red free RPMI-1640 medium for three days before harvesting the cells. ARCaPE-RANKL and LNCaP-RANKL cells were cultured in 6-well plate and treated with 20 μM of LY294002, a PI3K inhibitor, 20 μM of SB203580, an inhibitor of MAP kinase reactivating kinase, or 2 μM of PS341 (bortezomib), a proteasome inhibitor, at 90% confluency for four hours. Cells were lysed in RIPA buffer containing 1× protease inhibitor cocktail (Thermo Fisher Scientific, Waltham, Mass.) and centrifuged, and the supernatants were collected and quantified using Bradford Protein Assay (Thermo Fisher Scientific, Waltham, Mass.). Cell lysates (20-30 μg) were resolved on a 4-12% Bis-Tris gradient SDS-PAGE (Invitrogen, Carlsbad, Calif.) under reducing conditions, followed by transblotting onto nitrocellulose membrane (BioRad, Hercules, Calif.). The membranes were blocked in 5% non-fat milk in PBST for one hour at room temperature (RT) and incubated with diluted primary antibodies in blocking buffer at 4° C. overnight. The primary antibodies used were RANKL, E-cadherin, vimentin, and OPG (Santa Cruz Biotechnology, Inc., Santa Cruz, Calif.), RANK (Amgen, Thousand Oaks, Calif.), N-cadherin (BD Transduction Laboratories, San Jose, Calif.), phosphor-Akt (Ser 473), Akt, phosphor-p38 (Thr180/Tyr182), p38, phosphor-ERK1/2 (Thr202/Tyr204), ERK, phosphor-SAPK/JNK (Thr183/Tyr185), JNK, phosphor-NF-κB p65 (Ser536), and NF-κB p65 (Cell Signaling Technology, Danvers, Mass.). The membranes were washed with PBST for three times before incubating with peroxidase-conjugated anti-mouse or anti-rabbit secondary antibodies at RT for one hour. After three times washing, the membranes were visualized using ECL Plus reagent (GE Healthcare, Piscataway, N.J.).

[6] = OPG (vs RANKL) or anti-HGF antibody (vs HGF) treatment
[7] = exogeneous RANKL or HGF treatment

osteoprotegerin [OPG]
RANKL- or HGF-induced cMet expression and phosphorylation in ARCaPE cells (cMet in ARCaPE cells; [6]): abrogated | induction of cMyc binding to the cMyc site ([1]; exposing to OPG): dampened | RANKL up-regulated cMet transcriptional activity ([2]; OPG treatment): attenuated | increased migration and invasion of LNCaP-RANKL cells ([3]; OPG treatment): antagonized; also recorded: suppressed | RANKL-induced increase of migration and invasion of LNCaP cells ([3]; presence of OPG): abrogated | RANKL- or HGF-induced cMet expression and phosphorylation in LNCaP cells (cMet in LNCaP cells; [6]): abrogated | increased RANKL promoter activity in LNCaP-RANKL cells ([4]; OPG treatment): attenuated | increased migration and invasion of ARCaPE-RANKL cells ([5]; OPG treatment): suppressed | migration and invasion of ARCaPM cells ([5]; OPG treatment, 1 μg/ml): antagonized; also recorded: decreased | RANKL-induced increase of migration and invasion of ARCaPE cells ([5]; presence of OPG): abrogated | RANKL-induced RANKL expression in LNCaP cells (LNCaP cells; addition of OPG): attenuated | RANKL-induced biochemical EMT changes in LNCaP cells (LNCaP cells; addition of OPG): abolished

B1: RANKL: trimerized recombinant RANKL protein (rRANKL), receptor activator of NF-KB ligand (protein, UniProt O14788 69-317, looked up)
extracellular domain: YFRAQMDPNRISEDGTHCIYRILRLHENADFQDTTLESQDTKLIPDSCRRIKQAFQGAVQKELQHIVGSQHIRAEKAMVDGSWLDLAKRSKLEAQPFAHLTINATDIPSGSHKVSLSSWYHDRGWAKISNMTFSNGKLIVNQDGFYYLYANICFRHHETSGDLATEYLQLMVYVTKTSIKIPSSHTLMKGGSTKYWSGNSEFHFYSINVGGFFKLRSGEEISIEVSNPSLLDPDQDATYFGAFKVRDID
modifications: extracellular domain trimerized
cMet expression and phosphorylated level of cMet in ARCaPE cells (cMet in ARCaPE cells; [7]): significantly increased | increase of cMyc binding to the cMyc site ([1]; RANKL-treated LNCaP cells, quantitative real-time PCR): ~11 fold | cMet transcriptional activity ([2]; RANKL treatment): up-regulated | migration and invasion of LNCaP cells ([3]; recombinant RANKL treatment): increased | cMet expression and phosphorylated level of cMet in LNCaP cells (cMet in LNCaP cells; [7]): significantly increased | RANKL promoter activity in LNCaP cells ([4]; RANKL treatment): induction | migration and invasion of ARCaPE cells ([5]; recombinant RANKL treatment): increased | RANKL expression at mRNA and protein levels in LNCaP cells (LNCaP cells; RANKL treatment): induced; also recorded: up-regulated | nuclear levels of cMyc and Max in LNCaP cells (LNCaP cells; RANKL-treated versus LNCaP cells): higher | induction of EMT (EMT-specific markers) in LNCaP cells (LNCaP cells; exogenously added RANKL, 200 ng/ml): confirmed; also recorded: decreased epithelial marker E-cadherin and increased mesenchymal marker vimentin, N-cadherin, and Snail | phosphorylation of PI3K/Akt, P38 and NFκB proteins in parental LN cells (LNCaP cells; treated with RANKL protein): elevated
